Results as given in patent publication US8470889B2 (TRT Pharma Inc., priority 2008, dated 2013).
Where two headings read alike, the source gives them in different places.

How the values were obtained:
PC-3 cells = assay: MTT cell growth inhibition, PC-3; conditions: for Cellular IC50 (μM) PC3: Table 8
Method: (§1) MDA PCa 2b was seeded at the same density in medium BRFF-HPC1 (Athena Enzyme Systems, Baltimore, Md., USA) supplemented with 20% FBS. After overnight incubation, the medium was changed to a fresh medium containing different concentrations of test compounds diluted from stock DMSO solution. The final concentration of DMSO is 0.5%. After 72 h of incubation with test compounds, 20 μL of 3-(4,5-dimethyl thiazol-2-yl)-2,5-diphenyltetrazolium bromide (MTT) solution (5 mg/mL in PBS) were added to each well and incubated further for 2 h. Next, the supernatant was aspirated and the MTT formazan formed by metabolically viable cells was dissolved in 100 μL of isopropanol. The plates were mixed for 30 min, and the absorbance was measured at 600 nm on a plate reader (FLUOstar OPTIMA, BMG LabTech). All samples were in triplicate. The IC50 values were determined from dose-response curves by nonlinear regression using PRISM v5.00 (GraphPad Software Inc, La Jolla, Calif., USA).
(§2) The in vitro cytotoxicity of 1-20 were evaluated by MTT assays in a panel of prostate cancer cell lines, including LNCaP, MDA PCa 2b, 22Rv1, C4-2B and PC-3.

LNCaP cells = assay: MTT cell growth inhibition, LNCaP;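 further: MTT formazan absorbance at 600 nm read after 72 h of compound exposure, IC50 fitted by nonlinear regression of dose-response curves, samples run in triplicate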
22Rv1 cells = assay: MTT cell growth inhibition, 22Rv1; conditions: MTT
Method: as §1, §2

C4-2B cells = assay: MTT cell growth inhibition, C4-2B;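 further: cells treated with a dilution series for 72 h, then MTT added and absorbance read at 600 nm, IC50 fitted from dose-response curves by nonlinear regression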
Method: as §1, §2

[1] = read-out: IC50 (μM) PC-3, Table 1, 72 h, maximum tested concentration 50 μM
[2] = read-out: IC50 (μM) LNCaP, Table 1, 72 h
[3] = read-out: IC50 (μM) 22Rv1, Table 1, 72 h
[4] = read-out: IC50 (μM) C4-2B, Table 1, 72 h
[5] = read-out: Cellular IC50 (μM) PC-3, Table 2, 72 h, max tested 50 μM (β-ionone 150 μM)
[6] = read-out: Cellular IC50 (μM) LNCaP, Table 2, 72 h
[7] = read-out: Cellular IC50 (μM) 22Rv1, Table 2, 72 h
[8] = read-out: Cellular IC50 (μM) C4-2B, Table 2, 72 h
[9] = read-out: Cellular IC50 (μM) PC3, Table 8
[10] = read-out: Cellular IC50 (μM) LNCaP, Table 8
[11] = read-out: Cellular IC50 (μM) 22Rv1, Table 8
[12] = read-out: Cellular IC50 (μM) C4-2B, Table 8

SMILES: COc1cc(/C=C/C(O)=C/C(=O)/C=C/C2=C(C)CCCC2(C)C)ccc1O [Compound 1]
- IC50 (PC-3 cells; [1]): 15.8 µM
- IC50 (LNCaP cells; [2]): 20.6 µM
- IC50 (22Rv1 cells; [3]): 10.6 µM
- IC50 (C4-2B cells; [4]): 44.3 µM

SMILES: COc1ccc(/C=C/C(O)=C/C(=O)/C=C/C2=C(C)CCCC2(C)C)cc1O [Compound 2]
- IC50 (PC-3 cells; [1]): 38.3 µM
- IC50 (LNCaP cells; [2]): 25.9 µM
- IC50 (C4-2B cells; [4]): 23.1 µM

SMILES: COc1ccc(/C=C/C(O)=C/C(=O)/C=C/C2=C(C)CCCC2(C)C)cc1OC [Compound 3]
- IC50 (PC-3 cells; [1]): 47.9 µM
- IC50 (LNCaP cells; [2]): 26.4 µM
- IC50 (C4-2B cells; [4]): 30.6 µM

SMILES: CCOc1ccc(/C=C/C(O)=C/C(=O)/C=C/C2=C(C)CCCC2(C)C)cc1OCC [Compound 4]
- IC50 (PC-3 cells; [1]): 53.3 µM
- IC50 (LNCaP cells; [2]): 30 µM
- IC50 (C4-2B cells; [4]): 22.6 µM

SMILES: CC1=C(/C=C/C(=O)/C=C(O)/C=C/c2ccc(O)cc2)C(C)(C)CCC1 [Compound 5]
- IC50 (PC-3 cells; [1]): 50.6 µM
- IC50 (LNCaP cells; [2]): 18.6 µM
- IC50 (22Rv1 cells; [3]): 12.6 µM
- IC50 (C4-2B cells; [4]): 5.7 µM

SMILES: COc1cc(/C=C/C(O)=C/C(=O)/C=C/C2=C(C)CCCC2(C)C)cc(OC)c1O [Compound 6]
- IC50 (PC-3 cells; [1]): 26.7 µM
- IC50 (LNCaP cells; [2]): 6.2 µM
- IC50 (22Rv1 cells; [3]): 12.2 µM
- IC50 (C4-2B cells; [4]): 9.8 µM

SMILES: COc1cc(/C=C/C(O)=C/C(=O)/C=C/C2=C(C)CCCC2(C)C)cc(OC)c1OC [Compound 7]
- IC50 (PC-3 cells; [1]): > 50 µM
- IC50 (LNCaP cells; [2]): 21.4 µM
- IC50 (22Rv1 cells; [3]): 17.1 µM
- IC50 (C4-2B cells; [4]): 11.9 µM

SMILES: COc1ccc(/C=C/C(O)=C/C(=O)/C=C/C2=C(C)CCCC2(C)C)cn1 [Compound 8]
- IC50 (PC-3 cells; [1]): 52.2 µM
- IC50 (LNCaP cells; [2]): 25.1 µM

SMILES: COc1ccc(C=CC(=O)C(=Cc2ccc(OC)c(O)c2)C(=O)C=CC2=C(C)CCCC2(C)C)cc1O [Compound 11]
- IC50 (PC-3 cells; [5]): 29.2 µM
- IC50 (LNCaP cells; [6]): 7.3 µM
- IC50 (22Rv1 cells; [7]): 5.2 µM
- IC50 (C4-2B cells; [8]): 4.5 µM

SMILES: COc1ccc(C=CC(=O)C(=Cc2ccc(OC)c(OC)c2)C(=O)C=CC2=C(C)CCCC2(C)C)cc1OC [Compound 12]
- IC50 (PC-3 cells; [5]): 34.3 µM
- IC50 (LNCaP cells; [6]): 15.9 µM
- IC50 (22Rv1 cells; [7]): 49.7 µM
- IC50 (C4-2B cells; [8]): 54.4 µM

SMILES: COc1cc(C=CC(=O)C(=Cc2cc(OC)c(OC)c(OC)c2)C(=O)C=CC2=C(C)CCCC2(C)C)cc(OC)c1OC [Compound 16]
- IC50 (PC-3 cells; [5]): 5.9 µM
- IC50 (LNCaP cells; [6]): 3.4 µM
- IC50 (22Rv1 cells; [7]): 1.5 µM
- IC50 (C4-2B cells; [8]): 2.2 µM

SMILES: COc1ccc(/C=C/C(=O)/C(=C/c2ccc(OC)nc2)C(=O)/C=C/C2=C(C)CCCC2(C)C)cn1 [Compound 17]
- IC50 (PC-3 cells; [5]): 31 µM
- IC50 (LNCaP cells; [6]): 15.7 µM
- IC50 (22Rv1 cells; [7]): 9.9 µM
- IC50 (C4-2B cells; [8]): 12.2 µM

SMILES: CCn1c2ccccc2c2cc(/C=C(\C(=O)/C=C/C3=C(C)CCCC3(C)C)C(=O)/C=C/c3ccc4c(c3)c3ccccc3n4CC)ccc21 [Compound 18]
- Cellular IC50 (μM) PC-3 (PC-3 cells; Table 2, 72 h, max tested 50 μM (β-ionone 150 μM)): Inactive^c
- IC50 (LNCaP cells; [6]): 11.8 µM
- IC50 (22Rv1 cells; [7]): 31.6 µM
- IC50 (C4-2B cells; [8]): 28.5 µM

SMILES: COc1cc(/C=C/C(=O)/C(=C/c2ccc3ccccc3n2)C(=O)/C=C/C2=C(C)CCCC2(C)C)ccc1O [Compound 20]
- IC50 (PC-3 cells; [5]): 15.2 µM
- IC50 (LNCaP cells; [6]): 8.5 µM
- IC50 (22Rv1 cells; [7]): 5.1 µM
- IC50 (C4-2B cells; [8]): 5.3 µM

SMILES: CC1=C(/C=C/C(=O)/C=C/c2cccc(OC(F)(F)F)c2)C(C)(C)CCC1O (stereo not shown) [Compound B46]
- IC50 (PC-3 cells; [9]): 1.7 µM
- IC50 (LNCaP cells; [10]): 1.4 µM

SMILES: CC1=C(/C=C/C(=O)/C=C/c2cccc(OC(F)(F)C(F)F)c2)C(C)(C)CCC1O (stereo not shown) [Compound B47]
- IC50 (PC-3 cells; [9]): 4.6 µM
- IC50 (LNCaP cells; [10]): 1.6 µM
- IC50 (22Rv1 cells; [11]): 1.8 µM

SMILES: CC1=C(/C=C/C(=O)/C=C/c2cccc(Oc3ccccc3)c2)C(C)(C)CCC1O (stereo not shown) [Compound B48]
- IC50 (PC-3 cells; [9]): 2 µM
- IC50 (LNCaP cells; [10]): 2.4 µM

SMILES: CC1=C(/C=C/C(=O)/C=C/c2cccc(OCc3ccccc3)c2)C(C)(C)CCC1O (stereo not shown) [Compound B49]
- IC50 (PC-3 cells; [9]): 8 µM
- IC50 (LNCaP cells; [10]): 5 µM
- IC50 (22Rv1 cells; [11]): 5.4 µM
- IC50 (C4-2B cells; [12]): 2.6 µM

SMILES: CC1=C(/C=C/C(=O)/C=C/c2ccc(C)cc2)C(C)(C)CCC1O (stereo not shown) [Compound B51]
- IC50 (PC-3 cells; [9]): 18.6 µM
- IC50 (LNCaP cells; [10]): 11.5 µM
- IC50 (22Rv1 cells; [11]): 12.3 µM
- IC50 (C4-2B cells; [12]): 5.9 µM

SMILES: CC1=C(/C=C/C(=O)/C=C/c2ccc(O)cc2)C(C)(C)CCC1O (stereo not shown) [Compound B52]
- Cellular IC50 (μM) PC3 (PC-3 cells): Int
- IC50 (LNCaP cells; [10]): 8.9 µM
- IC50 (22Rv1 cells; [11]): 10.6 µM

SMILES: COc1ccc(/C=C/C(=O)/C=C/C2=C(C)C(O)CCC2(C)C)cc1 (stereo not shown) [Compound B53]
- Cellular IC50 (μM) PC3 (PC-3 cells): Int
- IC50 (LNCaP cells; [10]): 13.3 µM
- IC50 (22Rv1 cells; [11]): 20.3 µM
- IC50 (C4-2B cells; [12]): 10.3 µM

SMILES: CC1=C(/C=C/C(=O)/C=C/c2ccc(OC(F)(F)F)cc2)C(C)(C)CCC1O (stereo not shown) [Compound B54]
- IC50 (PC-3 cells; [9]): 6.6 µM
- IC50 (LNCaP cells; [10]): 1.3 µM

SMILES: CC1=C(/C=C/C(=O)/C=C/c2ccc(OC(F)(F)C(F)F)cc2)C(C)(C)CCC1O (stereo not shown) [Compound B55]
- IC50 (PC-3 cells; [9]): 12.3 µM
- IC50 (LNCaP cells; [10]): 5.4 µM
- IC50 (22Rv1 cells; [11]): 7.7 µM
- IC50 (C4-2B cells; [12]): 4.6 µM
